Source: patent US10849867B2, “Methods and compositions for treating conditions associated with an abnormal inflammatory response” (First Wave Bio, Inc., priority 2015, dated 2020)

Columns and labels:
TNBS-induced colitis = assay: Relapsing TNBS-induced colitis in mice, rectal niclosamide (Example 4); assay type: in vivo, C57BL/6J female mice; settings: relative to vehicle control
Text: Objective. […] Model. The TNBS-induced colitis is a commonly used experimental model for Inflammatory Bowel Disease (IBD). TNBS (trinitrobenzenesulfonic acid) is a chemical administered rectally in the form of an enema to mice or rats in combination with ethanol, which disrupts the mucous barrier, and induces colitis by […] proteins within the gut, causing them to become preferential targets for immune cells. The severity of TNBS-induced colitis depends largely on the dosage applied and the strain of animal used. In chronic, relapsing form of the model, animals are sensitized by escalating, intracolonic doses of TNBS. Disease is monitored in-life by weight loss. Histology of colon specimens is used to determine disease severity at study termination (Gastroenterology. 2003 December; 125(6). 1750-61; Inflamm Bowel Dis. 2006 October; 12(10):995-9.) Mouse strain and housing. C57BL/6J female mice (9-weeks old) are purchased by Jackson and are housed at a temperature ranging from 68 to 74° F. with a diurnal 12 hour light cycle in a specific pathogen-free facility in ventilated cages. Food and water is provided ad libitum. Animals are acclimated to local microbiota for 7 days before the beginning of the experiment. Cell isolation and culture procedures are as noted in Example 2. Conditioning to induce colitis. To perform the studies of relapsing hapten-induced colitis 4 escalating doses of TNBS in 50% ethanol are administered at weekly intervals to lightly anesthetized mice through a 3.5Fr catheter inserted into the rectum. The catheter tip is inserted 4 cm proximal to the anal verge, and 150 μL of fluid is slowly instilled into the colon, after which the mouse is held in a vertical position for 30 seconds per rectum at weekly intervals. […] For the clinical assessment of colitis, animal weight, diarrhea (0=absent; 1=present), rectal prolapse (0=absent; l=present) and presence of blood in the stool (0=absent; l=present) is recorded daily. […] For statistical comparisons, two-way Anova test with Bonferroni correction is calculated with […] software.

[1] = cited from earlier work
[2] = Pharmacokinetics following a single rectal administration to NZW rabbits (Example 11); assay type: in vivo, New Zealand White KBL Rabbit; settings: Treatment B 7.5, NZW rabbits; for concentration at 2 h / concentration at 4 h / concentration at 8 h / concentration at 24 h: male, New Zealand White KBL, rabbit, plasma, other: rectal, 7.5 mg, Niclosamide Plasma Concentrations
Text: Following dosing, blood samples and rectal mucosa was obtained at indicated time points.

Niclosamide Plasma Concentrations, Mean ([2]; 1 h): 3.9275 ng/mL
concentration at 2 h ([2]; Mean, 2 h): 19.7 ng/mL
concentration at 4 h ([2]; Mean, 4 h): 12 ng/mL
concentration at 8 h ([2]; Mean, 8 h): 4.68 ng/mL
concentration at 24 h ([2]; Mean, 24 h): 1.07 ng/mL
concentration at 2 h ([2]; Subject 666, 2 h): 5.19 ng/mL
concentration at 8 h ([2]; Subject 666, 8 h): 4.73 ng/mL
concentration at 2 h ([2]; Subject 667, 2 h): 3.26 ng/mL
concentration at 8 h ([2]; Subject 667, 8 h): 4.63 ng/mL
concentration at 24 h ([2]; Subject 667, 24 h): 1.07 ng/mL
concentration at 2 h ([2]; Subject 668, 2 h): 50.7 ng/mL
concentration at 4 h ([2]; Subject 668, 4 h): 2.21 ng/mL
Compound: O=C(Nc1ccc([N+](=O)[O-])cc1Cl)c1cc(Cl)ccc1O [Niclosamide, 5-chloro-N-(2-chloro-4-nitrophenyl)-2-hydroxybenzamide]
colitis clinical scores (TNBS-induced colitis; daily, 1-100 mg/kg): dose-related decrease
colitis histologic scores (TNBS-induced colitis; daily, 1-100 mg/kg): dose-related decrease
doses that significantly reduce both clinical and histologic scores (p<0.05) (TNBS-induced colitis): ≥ 3 mg/kg
water solubility ([1]; at 20° C.): 5 to 8 µg/mL
solubility in acetone [1]: soluble
solubility in ether, ethanol and chloroform [1]: sparingly soluble
